Data on 4 molecules can be found in patent publication US20160122330A1, “PIPERIDINYL BENZOIMIDAZOLE DERIVATIVES AS MPGE-1 INHIBITORS” (NOVASAID AB, priority 2013, published 2016).

Assay [1] relates to A549 lung carcinoma cells. Kind of assay: A549 cell-assay, cellular PGE2 synthesis. The format is cell-based. Particulars: Homo sapiens, PGE2 content by EIA, TNFalfa/IL-1beta stimulated cells, 10 μM arachidonic acid, arithmetic mean values. The procedure: Prostaglandin detection kits were purchased from Cayman Chemicals and used according to the instruction of the manufacturer.
A549 lung carcinoma cells, seeded at a density of 10,000 cells/well, were grown in 96 well tissue culture plates. TNFalfa (5 ng/mL) and IL-1beta (5 ng/mL) were added and the cells were incubated for 16 hours. Cells were washed in PBS and test compounds at the appropriate concentration in HBSS/0.1% BSA were added. After 30 minutes of incubation with test compounds, 10 μM arachidonic acid was added and cells were further incubated for 30 minutes. Supernatant was collected and analyzed for PGE2 content by EIA according to manufacturer's instructions.

For assay [2], the target named is T1, recombinant membrane-bound human mPGEs-1 (Homo sapiens, UniProt O14684).
T1 sequence (O14684 1-152): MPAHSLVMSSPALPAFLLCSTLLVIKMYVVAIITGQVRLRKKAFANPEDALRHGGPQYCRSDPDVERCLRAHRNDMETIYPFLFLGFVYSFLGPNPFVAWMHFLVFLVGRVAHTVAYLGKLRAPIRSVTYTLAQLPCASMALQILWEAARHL
In words: Thiobarbituric acid assay (TBA-MDA assay), inhibition of human mPGEs-1. Conditions: arithmetic mean values. The assay is classed as biochemical. The source says:
Malondialdehyde is a product of lipid peroxidation and reacts with thiobarbituric acid forming a red product that absorbs light at 535 nm (W. G. Niehaus, Jr and B. Samuelsson, Eur. J. Biochem 6, 126 (1968)) and is also fluorescent. The extinction coefficient of the TBA-MDA conjugate is 1.56×10^5 M^−1 cm^−1 (E. D. Wills. Biochem. J. 113, 315 (1969). The method used for detection of inhibition of mPGEs-1 is based on the detection of the amount of remaining PGH2. This method was described more than 20 years ago by Basevich et al (Bioorg. Khim. 1983, 9(5), 658-665).
The assay used was a modified variant and used citric acid instead of the TCA-TBA-HCl reagent described in the original assay. In this assay, recombinant membrane-bound human mPGEs-1 was incubated with PGH2. The reaction was stopped by adding citric acid to a final pH 3 and a large excess of iron(II) chloride (20 mM) to convert any remaining PGH2 into MDA and 12-HHT. TBA reagent was finally added (0.67%) and the samples were heated at 80° C. for 30 min. The fluorescence of the conjugate was measured at 485/545 nm.
The product of mPGEs-1 (PGE2) was not measured directly in this assay, but rather the remaining substrate (PGH2) indirectly by adding FeCl2 that converts PGH2 into MDA and 12-HHT. As a positive control, a known mPGEs-1 inhibitor, MK-886, was used and the inhibition afforded by the new inhibitors was compared with that obtained from MK-886.

Consider `Cc1cc2c(cc1Cl)nc(N1CCC(C(=O)N[C@@H]3CCOC3)CC1)n2-c1cccc(C(F)(F)F)n1` [Example 1, (R)-1-(5-chloro-6-methyl-1-(6-(trifluoromethyl)pyridin-2-yl)-111-benzo[d]imidazol-2-yl)-N-(tetrahydrofuran-3-yl)piperidine-4-carboxamide], for which the IC50 in assay [1] turned out to be 28 nM; in assay [2] it was 18 nM.
On the same counts, the results for `Cc1cc2nc(N3CCC(C(=O)N[C@@H]4CCOC4)CC3)n(-c3cccc(C(F)(F)F)n3)c2cc1Cl` [Example 2, (R)-1-(6-chloro-5-methyl-1-(6-(trifluoromethyl)pyridin-2-yl)-1H-benzoimidazol-2-yl)-N-(tetrahydrofuran-3-yl)piperidine-4-carboxamide] are 52 nM and 24 nM.
On the same counts, the results for `Cc1cc2c(cc1Cl)nc(N1CCC(C(=O)N[C@@H]3CCOC3)CC1)n2-c1ccc(C(F)(F)F)cn1` [Example 3, (R)-1-(5-chloro-6-methyl-1-(5-(trifluoromethyl)pyridin-2-yl)-1H-benzo[d]imidazol-2-yl)-N-(tetrahydrofuran-3-yl)-piperidine-4-carboxamide] are 85 nM and 58 nM.
For `Cc1cc2nc(N3CCC(C(=O)N[C@@H]4CCOC4)CC3)n(-c3ccc(C(F)(F)F)cn3)c2cc1Cl` [Example 4, (R)-1-(6-chloro-5-methyl-1-(5-(trifluoromethyl)pyridin-2-yl)-1H-benzo[d]imidazol-2-yl)-N-(tetrahydrofuran-3-yl)-piperidine-4-carboxamide] the same measures were 122 nM and 46 nM.
